The record followed here is patent publication US12318381B2, “Treatment for non-alcoholic fatty liver disease” (1GLOBE BIOMEDICAL CO., LTD., priority 2018, dated 2025).

In the assay the test system is human HepG2 liver cells. Kind of assay: Intracellular fat content in palmitoleic acid-treated HepG2 cells (AdipoRed/Hoechst 33258 double staining, fluorometry). Type of assay: cell-based. Conditions: for palmitoleic acid-induced increase of intracellular triglyceride content: HepG2, 0.8 mM palmitoleic acid in EMEM; for inhibitory effect on fat accumulation as compared to Compound 13-3: HepG2, 0.8 mM palmitoleic acid. The protocol: The effects on triglyceride accumulation from Compound 13-3-1, Compound 13-3-2, Compound 13-3-3, Compound 13-3-5, Compound 13-3-6, Compound 13-3-7, Compound 18-2, Compound 13-3-10 and Compound 13-3-11, as exemplary compounds of the invention, were tested. Human HepG2 liver cells were incubated with 0.8 mM palmitoleic acid in EMEM medium for 24 hours in the presence of 0.1 μM compounds of the invention or control vehicle, DMSO. Subsequently, the cells were washed with PBS and the intracellular fat content was measured by AdipoRed/Hoechst 33258 double staining, which was assessed by flourometry.
And the effects of Compound 001, Compound 004, Compound 006, Compound 013, Compound 132, Compound 133 and Compound 134, as further exemplary compounds of the invention, were also tested. Human HepG2 liver cells were incubated with 0.8 mM palmitoleic acid in EMEM medium for 48 hours in the presence of 0.1 μM compounds of the invention or control vehicle, DMSO. Subsequently, the cells were washed with PBS and the intracellular fat content was measured by AdipoRed/Hoechst 33258 double staining, which was assessed by flourometry.

Setting [1] is: 48 hours, 0.1 μM compound vs DMSO (FIG. 1C).
The mark [2] stands for this setting: 24 hours, 0.1 μM compound vs DMSO (FIG. 1B).

In the case of `[2H]C([2H])(NC(=O)c1c(C)[nH]c(/C=C2\C(=O)Nc3ccc(-c4csc(-c5ccccc5)n4)cc32)c1C)C([2H])([2H])N(CC)CC` [Compound 001], the “palmitoleic acid-induced increase of intracellular triglyceride content” value (“palmitoleic acid-induced increase” below) under setting [1] is given as “markedly suppressed”. For the same compound, the “inhibitory effect on fat accumulation as compared to Compound 13-3” value (from here on “inhibitory effect … compared to Compound 13-3”) (48 hours, 0.1 μM (FIG. 1C)) was “comparable or greater”.

As to `[2H]C([2H])([2H])C([2H])([2H])N(C([2H])([2H])C([2H])([2H])[2H])C([2H])([2H])C([2H])([2H])NC(=O)c1c(C)[nH]c(/C=C2\C(=O)Nc3ccc(-c4csc(-c5ccccc5)n4)cc32)c1C` [Compound 004], the “palmitoleic acid-induced increase” value under setting [1] is “markedly suppressed”. Also, the “inhibitory effect … compared to Compound 13-3” value (48 hours, 0.1 μM (FIG. 1C)) is given as “comparable or greater”.

Turning to `[2H]c1c([2H])c([2H])c(-c2nc(-c3ccc4c(c3)/C(=C/c3[nH]c(C)c(C(=O)NC([2H])([2H])C([2H])([2H])N(C([2H])([2H])C([2H])([2H])[2H])C([2H])([2H])C([2H])([2H])[2H])c3C)C(=O)N4)cs2)c([2H])c1[2H]` [Compound 006], under setting [1], the “palmitoleic acid-induced increase” value is recorded as “markedly suppressed”. In addition, the “inhibitory effect … compared to Compound 13-3” value (48 hours, 0.1 μM (FIG. 1C)) is “comparable or greater”.

On to `CCN(CC)CCNC(=O)c1c(C)[nH]c(/C=C2\C(=O)Nc3ccc(-c4csc(Nc5ccccc5)n4)cc32)c1C` [Compound 13-3-1], for which, under setting [2], the “palmitoleic acid-induced increase” value is reported as “markedly suppressed”. The “inhibitory effect … compared to Compound 13-3” value (24 hours, 0.1 μM (FIG. 1B)) is on record as “comparable or greater”.

Take `CCN(CC)CCNC(=O)c1c(C)[nH]c(/C=C2\C(=O)Nc3ccc(-c4csc(N5CCCCC5)n4)cc32)c1C` [Compound 13-3-2]: under setting [2], the “palmitoleic acid-induced increase” value is given as “markedly suppressed”. Also, the “inhibitory effect … compared to Compound 13-3” value (24 hours, 0.1 μM (FIG. 1B)) was “comparable or greater”.

On to `CCN(CC)CCNC(=O)c1c(C)[nH]c(/C=C2\C(=O)Nc3ccc(C(=O)Nc4csc([N+](=O)[O-])n4)cc32)c1C` [Compound 13-3-3], for which the “palmitoleic acid-induced increase” value under setting [2] is given as “markedly suppressed”. Besides, the “inhibitory effect … compared to Compound 13-3” value (24 hours, 0.1 μM (FIG. 1B)) is on record as “comparable or greater”.

For the compound `CCN(CC)CCNC(=O)c1c(C)[nH]c(/C=C2\C(=O)Nc3cccc(-c4cnc(OC)nc4)c32)c1C` [Compound 13-3-5], the “palmitoleic acid-induced increase” value under setting [2] is reported as “markedly suppressed”. For the same compound, the “inhibitory effect … compared to Compound 13-3” value (24 hours, 0.1 μM (FIG. 1B)) is “comparable or greater”.

On to `CCN(CC)CCC(=O)N1CCN(c2ccc(/C=C3\C(=O)Nc4ccc(-c5csc(-c6ccccc6)n5)cc43)cc2)CC1` [Compound 13-3-6], for which the “palmitoleic acid-induced increase” value under setting [2] is listed as “markedly suppressed”. Besides, the “inhibitory effect … compared to Compound 13-3” value (24 hours, 0.1 μM (FIG. 1B)) is recorded as “comparable or greater”.

With `CCN(CC)CCNC(=O)CCc1c(C)[nH]c(/C=C2\C(=O)Nc3ccc(-c4csc(-c5ccccc5)n4)cc32)c1C` [Compound 13-3-7], the “palmitoleic acid-induced increase” value under setting [2] was “markedly suppressed”. For the same compound, the “inhibitory effect … compared to Compound 13-3” value (24 hours, 0.1 μM (FIG. 1B)) is reported as “comparable or greater”.

As to `CCN(CC)CCNC(=O)c1c(C)[nH]c(/C=C2\C(=O)Nc3cnc(-c4csc(-c5ccccc5)n4)cc32)c1C` [Compound 13-3-10], under setting [2], the “palmitoleic acid-induced increase” value is listed as “markedly suppressed”. For the same compound, the “inhibitory effect … compared to Compound 13-3” value (24 hours, 0.1 μM (FIG. 1B)) is reported as “comparable or greater”.

`CCN(CC)CCNC(=O)c1c(C)[nH]c(/C=C2\C(=O)Nc3ccc(C4CCN(c5ccccc5)CC4)cc32)c1C` [Compound 13-3-11]: the “palmitoleic acid-induced increase” value under setting [2] was “markedly suppressed”. Moreover, where the note is “24 hours, 0.1 μM (FIG. 1B)”, the “inhibitory effect … compared to Compound 13-3” value is “comparable or greater”.

In the case of `[2H]c1c([2H])c([2H])c(-c2nc(-c3ccc4c(c3)/C(=C/c3[nH]c(C)c(C(=O)NC([2H])([2H])C([2H])([2H])N(CC)CC)c3C)C(=O)N4)cs2)c([2H])c1[2H]` [Compound 013], under setting [1], the “palmitoleic acid-induced increase” value is recorded as “markedly suppressed”. The “inhibitory effect … compared to Compound 13-3” value (48 hours, 0.1 μM (FIG. 1C)) was “comparable or greater”.

Take `Cc1[nH]c(/C=C2\C(=O)Nc3ccc(-c4csc(-c5cccnc5)n4)cc32)c(C)c1C(=O)N1CCN(C)CC1` [Compound 18-2]: under setting [2], the “palmitoleic acid-induced increase” value is on record as “markedly suppressed”. Besides, the “inhibitory effect … compared to Compound 13-3” value (24 hours, 0.1 μM (FIG. 1B)) is “comparable or greater”.

Turning to `[2H]c1c([2H])c([2H])c(-c2nc(-c3ccc4c(c3)/C(=C/c3[nH]c(C)c(C(=O)NCCN(CC)CC)c3C)C(=O)N4)cs2)c([2H])c1[2H]` [Compound 132], the “palmitoleic acid-induced increase” value under setting [1] is “markedly suppressed”. Also, the “inhibitory effect … compared to Compound 13-3” value (48 hours, 0.1 μM (FIG. 1C)) was “comparable or greater”.

On to `[2H]c1c([2H])c([2H])c(-c2nc(-c3ccc4c(c3)/C(=C/c3[nH]c(C)c(C(=O)NCCN(C([2H])([2H])C([2H])([2H])[2H])C([2H])([2H])C([2H])([2H])[2H])c3C)C(=O)N4)cs2)c([2H])c1[2H]` [Compound 133], for which the “palmitoleic acid-induced increase” value under setting [1] is “markedly suppressed”. Moreover, the “inhibitory effect … compared to Compound 13-3” value (48 hours, 0.1 μM (FIG. 1C)) is “comparable or greater”.

For `[2H]C([2H])([2H])C([2H])([2H])N(CCNC(=O)c1c(C)[nH]c(/C=C2\C(=O)Nc3ccc(-c4csc(-c5ccccc5)n4)cc32)c1C)C([2H])([2H])C([2H])([2H])[2H]` [Compound 134], under setting [1], the “palmitoleic acid-induced increase” value is given as “markedly suppressed”. Further, the “inhibitory effect … compared to Compound 13-3” value (48 hours, 0.1 μM (FIG. 1C)) is listed as “comparable or greater”.
